From patent US20200253907A1, “Compositions and Methods for Treating Neurodegenerative Diseases” (The Regents of the University of California, priority 2017, published 2020) come the findings set out here.

Entries after “also recorded” stand apart in the source; their conditions may differ.

The test system of data set [1] is GMC101 C. elegans strain. Briefly: Paralysis assay in GMC101 C. elegans model of Alzheimer's disease. In kind it is in vivo. Particulars: for GMC101 paralysis: 4 mM, FIG. 3; for paralysis caused by Aβ: single agent, FIG. 4 (alanine 1-8 mM), FIG. 5 (KIC 2-32 mM). As for the experimental part: To investigate the effects of small molecules in a C. elegans model of Alzheimer's disease, the GMC101 C. elegans strain, developed by Gawain McColl at the University of Melbourne, Australia, was used. The GMC101 C. elegans strain expresses the full length human amyloid beta 1-42 protein in the body wall muscle cells, leading to a fully penetrant age-progressive paralysis. These worms were first age-synchronized by performing an egg prep (mixed <100 gravid worms in 70 μl M9 buffer, 25 μl bleach and 5 μl 10 N NaOH). […] All worms were transferred to fresh plates on Day 5.

The test system of data set [2] is differentiated PC-12 cells. Description: Amyloid-beta induced cell death in differentiated PC-12 cells. In kind it is cell-based. Particulars: 200 μM, pretreated 2 hours before Aβ42 or Aβ25-35; 24-hour incubation; control cells 48.5±1.8%; FIG. 16. The source says:
Overnight after seeding, cells were differentiated with NGF in 0.5% FCS, RPMI 1640 medium for 7 days.

For the compound `CC(O)CC(=O)O` (stereo not shown) [3-HB, 3-hydroxybutyrate, reference compound], in data set [1], the GMC101 paralysis entry is reported as “delay in paralysis is not observed”.
Regarding `C[C@H](N)C(=O)O` [alanine, L-alanine], the “health span of GMC101” value is on record as “can extend health span of GMC101” in data set [1] (2 mM alanine alone, FIG. 9); “can extend health span of GMC101” in data set [1] (4 mM alanine alone, FIG. 10); “can extend health span of GMC101” in data set [1] (8 mM alanine alone, FIG. 11). For the same compound, the “paralysis caused by Aβ” value in data set [1] was “can reduce paralysis caused by Aβ”.
For the compound `CCCCCCCCOC(=O)C(=O)CCC(=O)O` [octyl α-KG, octyl α-ketoglutarate], in data set [2], the “cells remaining alive (viable)” value is “about 73±2.2%”.
On to `O=C(O)CCC(=O)C(=O)O` [α-KG, α-ketoglutarate], for which the “health span of GMC101 C. elegans strain” value in data set [1] (2 mM, FIG. 1) is “can extend the health span”. Besides, the “delay of paralysis compared to vehicle treatment” value in data set [1] (8 mM on NGM plates, worms shifted to 25° C.) came to 22%.
As for `CC(C)C(=O)C(=O)O` [KIV, α-ketoisovalerate], the GMC101 health span entry in data set [1] (8 mM, FIG. 6) is “can extend GMC101 health span”.
On to `CC[C@H](O)C(=O)O` [2-HB, 2-hydroxybutyrate], for which the GMC101 paralysis result in data set [1] was “can also delay GMC101 paralysis”.
`CC(C)CC(=O)C(=O)O` [KIC, α-ketoisocaproate]: the “beneficial effect in GMC101 (paralysis)” value in data set [1] (16 mM KIC alone) is listed as “not observed to exhibit beneficial effects; also recorded: does not exert a beneficial effect”. Besides, the “paralysis caused by Aβ” value in data set [1] is “reduces paralysis caused by Aβ”.
As for `CCC(=O)C(=O)O` [α-KB, α-ketobutyrate], in data set [1] (about 2 mM, FIG. 2), the Aβ caused paralysis entry is recorded as “can delay Aβ caused paralysis”.
